Experimental data from publication PMC8588277, “Oxy-Polybrominated Diphenyl Ethers from the Indonesian Marine Sponge, Lamellodysidea herbacea: X-ray, SAR, and Computational Studies” (Molecules, 2021).
In brackets after ≈: the same amount, converted by molar mass. Where two headings read alike, the source gives them in different places.

Legend:
[1] = system: human embryonic kidney (HEK293T) cells; experiment: In vitro cytotoxicity assay (MTT); format: cell-based
Experimental: (§1) In vitro cytotoxicity was determined against human embryonic kidney (HEK293T) cells. The assay was performed in 96-well treated tissue culture plates. Cells were seeded in the wells (5000 cells in 100 µL media containing RPMI1640, FBS, penicillin and streptomycin) and incubated for 24 h. Samples were then added and plates were again incubated for 48 h. MTT was then added and the plates were incubated for 4 h at 37 °C. Formazan crystals formed were dissolved in EtOH and absorbances were read at λ = 595 nm. The result was analyzed by using Prism 9 software (Graphpad, San Diego, CA, USA) to obtain IC50 values.

[2] = In vitro cytotoxicity assay (MTT); format: cell-based, human; conditions: human
Experimental: as §1

[3] = system: Staphylococcus aureus ATCC 6538; experiment: Agar-plate diffusion assay, S. aureus; format: cell-based; conditions: for Antibacterial Activity Gram-Positive S. aureus Clear Inhibition Zone: at the MID, disk diameter 6 mm; for Antibacterial Activity Gram-Positive S. aureus MID: minimum dose that induced an obvious inhibition zone (1–1.5 mm), 6 mm disk
Experimental: (§2) Staphylococcus aureus ATCC 6538 and Klebsiella pneumoniae were used for biological evaluation. Concentrations assayed ranged from 0.08 to 1.25 µg/disks. DMSO was used to dissolve the compounds, while vancomycin and oxacillin were used as positive controls for Staphylococcus aureus and gentamycin was used as a positive control for Klebsiella pneumoniae. The minimum inhibitory dose (MID, μg/disk) was defined as the minimum dose that induced an obvious inhibition zone (1–1.5 mm). The disk diameter was 6 mm.

Klebsiella pneumoniae = experiment: Agar-plate diffusion assay, K. pneumoniae; format: cell-based; conditions: for Antibacterial Activity Gram-Negative K. pneumoniae Clear Inhibition Zone: at the MID, disk diameter 6 mm; for Antibacterial Activity Gram-Negative K. pneumoniae MID: minimum dose that induced an obvious inhibition zone (1–1.5 mm), 6 mm disk
Experimental: as §2

Staphylococcus aureus = system: Staphylococcus aureus; design: method as in PMID 27399938; conditions: cited from earlier work
Enterococcus faecium = system: Enterococcus faecium; design: method as in PMID 27399938; conditions: cited from earlier work
Escherichia coli = system: Escherichia coli; design: method as in PMID 27399938; conditions: cited from earlier work
Pseudomonas aeruginosa = system: Pseudomonas aeruginosa; design: method as in PMID 27399938; conditions: cited from earlier work
Candida albicans = system: Candida albicans; design: method as in PMID 27399938; conditions: cited from earlier work
Bsc-1 cells = system: Bsc-1 cells; design: method as in PMID 27399938; conditions: cited from earlier work
[4] = Homo sapiens, HEK-293T, HEK293T cells, methylation and acetylation products, read-out: IC50 against HEK293T
[5] = HEK293T cells, MTT, 48 h, read-out: Cytotoxicity HEK293T IC50

Row | Compound | IC50 [1, 4] | Antibacterial Activity Gram-Positive S. aureus Clear Inhibition Zone [3] | Antibacterial Activity Gram-Positive S. aureus MID [3] | Antibacterial Activity Gram-Negative K. pneumoniae Clear Inhibition Zone (Klebsiella pneumoniae) | Antibacterial Activity Gram-Negative K. pneumoniae MID (Klebsiella pneumoniae) | other results
1 | COc1c(Br)cc(Br)cc1Oc1c(Br)c(Br)c(Br)c(Br)c1OC [Compound 8, 2,3,4,5-tetrabromo-6-(3′,5′-dibromo-2′-methoxyphenoxy) anisole] | > 10 µg/mL | – | – | – | – | –
2 | CC(=O)Oc1c(Br)c(Br)c(Br)c(Br)c1Oc1cc(Br)cc(Br)c1O [Compound 10, 2,3,4,5-tetrabromo-6-(3′,5′-dibromo-2′-hydroxyphenoxy) phenyl acetate] | > 10 µg/mL | – | – | – | – | –
3 | Oc1c(Br)cc(Br)cc1Oc1c(O)c(Br)c(Br)c(Br)c1Br [Compound 1, 2,3,4,5-tetrabromo-6-(3′, 5′-dibromo-2′-hydroxyphenoxy) phenol] | – | 7.17 ± 0.24 mm | 0.078 µg/Disk | 7.00 ± 0.00 mm | 0.078 µg/Disk | IC50 at 48 h ([2]; Cytotoxicity HEK293T IC50): 16.2 ± 1.17 µM
4 | CC(=O)Oc1c(Br)c(Br)cc(Br)c1Oc1cc(Br)cc(Br)c1O [Compound 12, 2,3,5-tribromo-6-(3′, 5′-dibromo-2′-hydroxyphenoxy) phenyl acetate] | > 10 µg/mL | – | – | – | – | –
5 | Oc1ccccc1Oc1ccccc1O [Compound 30, 2, 2′-oxydiphenol, reference compound] | – | – | – | – | – | IC50 at 48 h [2, 5]: > 198 µM
6 | COc1c(Br)cc(Br)cc1Oc1c(Br)cc(Br)c(Br)c1OC [Compound 9, 2,3,5-tribromo-6-(3′,5′-dibromo-2′-methoxyphenoxy) anisole] | > 10 µg/mL | – | – | – | – | –
7 | COc1c(Br)c(Br)c(Br)c(Br)c1Oc1cc(Br)cc(Br)c1O [Compound 7] | > 10 µg/mL | – | – | – | – | –
8 | COc1cccc2c1C(=O)c1c(O)c3c(c(O)c1C2=O)C[C@@](O)(C(=O)CO)C[C@@H]3O[C@H]1C[C@H](N)[C@H](O)[C@H](C)O1 [Doxorubicin, reference compound] | – | – | – | – | – | IC50 at 48 h [2, 5]: 0.22 ± 0.09 µM
9 | CC(=O)Oc1c(Br)cc(Br)cc1Oc1c(Br)c(Br)c(Br)c(Br)c1OC(C)=O [Compound 11, 2,3,4,5-tetrabromo-6-(3′,5′-dibromo-2′-acetoxyphenoxy) phenyl acetate] | > 10 µg/mL | – | – | – | – | –
10 | CN[C@H](CC(C)C)C(=O)N[C@H]1C(=O)N[C@@H](CC(N)=O)C(=O)N[C@H]2C(=O)N[C@H]3C(=O)N[C@H](C(=O)N[C@H](C(=O)O)c4cc(O)cc(O)c4-c4cc3ccc4O)[C@H](O)c3ccc(c(Cl)c3)Oc3cc2cc(c3O[C@@H]2O[C@H](CO)[C@@H](O)[C@H](O)[C@H]2O[C@H]2C[C@](C)(N)[C@H](O)[C@H](C)O2)Oc2ccc(cc2Cl)[C@H]1O [Vancomycin] | – | 7.00 ± 0.00 mm | 0.078 µg/Disk | 7.33 ± 0.24 mm | 0.078 µg/Disk | –
11 | Cc1onc(-c2ccccc2)c1C(=O)N[C@@H]1C(=O)N2[C@@H]1SC(C)(C)[C@@H]2C(=O)O [Oxacillin] | – | 11.33 ± 0.24 mm | < 0.078 µg/Disk | 7.33 ± 0.24 mm | 0.078 µg/Disk | –
12 | Oc1cc(Br)cc(Br)c1Oc1cc(Br)cc(Br)c1O [Compound 16, 3,5-dibromo-6-(3′, 5′-dibromo-2′-hydroxyphenoxy) phenol] | – | 7.00 ± 0.00 mm | 0.078 µg/Disk | 7.50 ± 0.00 mm | 0.078 µg/Disk | IC50 at 48 h ([2]; Cytotoxicity HEK293T IC50): 8.65 ± 1.11 µM; IC50 ([1]; human, 48 h): 8.11 µM; MIC Staphylococcus aureus (Staphylococcus aureus): 1.25 to 1.6 µg/mL; MIC Enterococcus faecium (Enterococcus faecium): 1.6 to 3.1 µg/mL; MIC Escherichia coli (Escherichia coli): 50 µg/mL (≈ 96.6 µM); MIC Pseudomonas aeruginosa (Pseudomonas aeruginosa): > 50 µg/mL; MIC Candida albicans (Candida albicans): > 50 µg/mL; IC50 against Bsc-1 cells (Bsc-1 cells): > 50 µg/mL
13 | CC(=O)Oc1c(Br)cc(Br)cc1Oc1c(Br)cc(Br)c(Br)c1OC(C)=O [Compound 13, 2,3,5-tribromo-6-(3′,5′-dibromo-2′-acetoxyphenoxy) phenyl acetate] | > 10 µg/mL | – | – | – | – | –
14 | Gentamycin | – | 7.67 ± 0.47 mm | 0.078 µg/Disk | 7.33 ± 0.47 mm | 0.078 µg/Disk | –
